Calls of active or inactive are those of the source. The rule behind the calls is not given here.
How the values were obtained:
Escherichia coli [1] = test: Agonist activity at quorum sensing system in Escherichia coli NM522 carrying Vibrio fischeri luxR and luxICDBE promoter region assessed as bioluminescence production after 4 to 5 hrs by luminometer
[2] = (§1) Antagonist activity at quorum sensing system in Escherichia coli NM522 carrying Vibrio fischeri luxR and luxICDBE promoter region assessed as inhibition of 3-oxo-C6HSL induced bioluminescence production after 4 to 5 hrs by luminometer
Escherichia coli [3] = test: as §1
Escherichia coli [4] = test: Growth inhibition of Escherichia coli NM522 carrying Vibrio fischeri luxR and luxICDBE promoter region at 20 uM to 20 mM after overnight incubation by disk diffusion assay; type: organism-based; settings: in vivo

SMILES | Activity (Escherichia coli [1]) | inhibition (Escherichia coli [3]) | IC50 [2] [µM] | Activity (Escherichia coli [4])
CCCCCCCC(O)C1=CCOC1=O (centres undefined) | inactive | inactive |  | 
CCCC(O)C1=C/C(=C/Br)OC1=O (centres undefined) | inactive |  | 14 | 
CCCC(O)C1=C/C(=C\Br)OC1=O (centres undefined) | inactive |  | 18 | 
CCCCCC(O)C1=CCOC1=O (centres undefined) | inactive | inactive |  | 
CCCCCC(O)C1=C/C(=C/Br)OC1=O (centres undefined) | inactive |  | 6 | 
CCCCCCCC(O)C1=C/C(=C/Br)OC1=O (centres undefined) | inactive |  | 25 | 
CCCCC1=C(Br)/C(=C/Br)OC1=O |  |  | 45 | 
CCCC(O)C1=CCOC1=O (centres undefined) | inactive | inactive |  | 

Further lines, with some results ahead:

Activity (Escherichia coli [1]) | inhibition (Escherichia coli [3]) | SMILES | IC50 [2] [µM] | Activity (Escherichia coli [4])
inactive |  | C=C1C=C(CCCCCC)C(=O)O1 | > 200 | 
inactive |  | C=C1C=C(C(O)CCCCC)C(=O)O1 (centres undefined) | 8 | 
inactive |  | CCCCC1=C/C(=C/Br)OC1=O | 0.6 | Non-toxic
inactive |  | CCCCCCC1=CCOC1=O | > 200 | 
inactive |  | CCCCCCC1=C/C(=C/Br)OC1=O | 3 | 
inactive |  | C=C1C=C(CCCC)C(=O)O1 | > 200 | 
inactive |  | C=C1C=C(C(O)CCC)C(=O)O1 (centres undefined) | 52 | 
inactive |  | C=C1C=C(C(O)CCCCCCC)C(=O)O1 (centres undefined) | 15 | 
inactive |  | CCCCC1=CCOC1=O | > 200 | 

Reference: ChEMBL document CHEMBL3132788, “A new route towards fimbrolide analogues: importance of the exomethylene motif in LuxR dependent quorum sensing inhibition” (Medchemcomm, 2013)
